Laboratory results taken from PubChem BioAssay (NCI).
Where “and” joins values, the source holds several entries; their conditions need not be identical. Equal entries are not always repeated.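 How tested: cells in 96-well plates exposed to compound for 48 hours at five concentrations. GI50: concentration for 50% inhibition of growth. The concentration for full growth arrest is given as TGI.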

Tests used:
Test in all cases: DTP human tumour cell line panel, 48 h
786-0 renal = system: 786-0 renal
HCT-116 colon = system: HCT-116 colon
IGROV1 ovarian = system: IGROV1 ovarian
LOX IMVI melanoma = system: LOX IMVI melanoma
M14 melanoma = system: M14 melanoma
MDA-MB-231 breast = system: MDA-MB-231 breast
NCI-H460 lung = system: NCI-H460 lung
SF-539 CNS = system: SF-539 CNS
SR leukemia = system: SR leukemia
UACC-62 melanoma = system: UACC-62 melanoma

| SMILES | GI50 (786-0 renal) | TGI (786-0 renal) | GI50 (HCT-116 colon) | TGI (HCT-116 colon) | GI50 (IGROV1 ovarian) | TGI (IGROV1 ovarian) | GI50 (LOX IMVI melanoma) | TGI (LOX IMVI melanoma) | GI50 (M14 melanoma) | TGI (M14 melanoma) | GI50 (MDA-MB-231 breast) | TGI (MDA-MB-231 breast) | GI50 (NCI-H460 lung) | TGI (NCI-H460 lung) | GI50 (SF-539 CNS) | TGI (SF-539 CNS) | GI50 (SR leukemia) | TGI (SR leukemia) | GI50 (UACC-62 melanoma) | TGI (UACC-62 melanoma) |
| --- | --- | --- | --- | --- | --- | --- | --- | --- | --- | --- | --- | --- | --- | --- | --- | --- | --- | --- | --- | --- |
| COc1cc2ncnc(Oc3cccc(NC(=O)Nc4cc(C(C)(C)C(F)(F)F)on4)c3)c2cc1OC | 2.58 µM and 4.44 µM | 14.7 µM and > 10 µM | 0.618 µM and 0.843 µM | 11 µM and > 10 µM | 0.565 µM and 0.634 µM | 4.61 µM and 3.69 µM | 0.319 µM and 0.421 µM | 1.54 µM and 1.81 µM | 0.105 µM and 0.18 µM | 1.47 µM and 1.91 µM | 1.03 µM and 0.571 µM | 4.44 µM and 7.3 µM | 2.2 µM and 3.28 µM | 13.9 µM and > 10 µM | 2.75 µM and 3.14 µM | 12.9 µM and > 10 µM | 2.95 µM and 2.6 µM | 11.9 µM and > 10 µM | 0.0628 µM and 0.0978 µM | 1.59 µM and 1.34 µM |
| CCOC(=O)[C@@H]1CSC(CC)=C(C(=O)O)N1 | > 100 µM | > 100 µM | > 100 µM | > 100 µM | > 100 µM | > 100 µM | > 100 µM | > 100 µM | > 100 µM | > 100 µM | > 100 µM | > 100 µM | > 100 µM | > 100 µM | > 100 µM | > 100 µM | > 100 µM | > 100 µM | > 100 µM | > 100 µM |
| C#C[C@]1(O)CC[C@H]2[C@@H]3CC=C4c5nc(N)sc5CC[C@]4(C)[C@H]3CC[C@@]21C | 2.06 µM | 4.41 µM | 3.91 µM | 19.6 µM | 4.83 µM | 25.9 µM | 1.92 µM | 4.04 µM | 2.75 µM | 7.83 µM | 3.07 µM | 9.67 µM | 3.78 µM | 16.4 µM | 1.58 µM | 3.56 µM | 2.31 µM | 9.18 µM | 2.05 µM | 5.2 µM |
| CC1(C)N=C(N)N=C(N)N1c1cccc(CCc2ccccc2)c1 | 0.799 µM | > 100 µM | 0.208 µM | > 100 µM | 0.113 µM | 17.6 µM | 0.269 µM | > 100 µM | 1.29 µM | > 100 µM | 4.27 µM | > 100 µM | 0.257 µM | > 39.3 µM | 1.37 µM | > 100 µM | 0.282 µM | > 64.3 µM | 0.49 µM | 20.4 µM |
| Nn1c(-c2ccc(Cl)cc2)nc2c(-c3ccc(Cl)cc3)nc3ccc(Cl)cc3c2c1=O | 16.4 µM | 54.3 µM | 5.79 µM | > 100 µM | 4.01 µM | 32.8 µM | 5.77 µM | 32.9 µM | 15.1 µM | > 100 µM | 14.1 µM | 62.5 µM | 3.36 µM | > 100 µM | 10.4 µM | 36.8 µM | 4.08 µM | 20.2 µM | 32.2 µM | > 100 µM |
| C=CC(=O)Nc1cc2c(Nc3ccc(F)c(Cl)c3)ncnc2cc1C#CC(C)(C)N1CCN(C)CC1 | 1.31 µM | 2.82 µM | 1.52 µM | 3.01 µM | 0.175 µM | 1.4 µM | 1.27 µM | 2.65 µM | 2.56 µM | 5.71 µM | 1.27 µM | 2.73 µM | 2.91 µM | 6.69 µM | 1.48 µM | 2.99 µM | 0.746 µM | 5.61 µM | 2.94 µM | 5.58 µM |
| O=c1[nH]cnc2n[nH]nc12 | – | > 100 µM | – | 28.3 µM | – | > 100 µM | – | > 49 µM | – | 30.8 µM | 1.67 µM | > 100 µM | – | > 69.7 µM | – | 23.9 µM | – | > 52.7 µM | – | 6.8 µM |
| Cn1c(=O)c2c(nc(N/N=C/c3ccccc3C(=O)O)n2C)n(C)c1=O | – | > 100 µM | – | > 100 µM | – | > 100 µM | – | > 100 µM | – | > 100 µM | – | > 100 µM | – | > 100 µM | – | > 100 µM | – | > 100 µM | – | > 100 µM |
| CCOC(=O)c1c(NC(=O)c2ccc(Cl)cc2)sc2c(CN(C)C)c(O)ccc12 | 5.54 µM | 20.7 µM | 6.96 µM | 40.8 µM | 8.88 µM | 31.7 µM | 4.73 µM | 18.5 µM | 2.24 µM | 5.87 µM | 6.53 µM | 34.5 µM | 4.71 µM | > 100 µM | 5.2 µM | 18.4 µM | 2.19 µM | 4.82 µM | 3.41 µM | 14.8 µM |
| O=C(O)c1ccccc1NCn1c(=S)sc2ccccc21 | – | > 100 µM | – | > 100 µM | – | > 100 µM | – | 43.4 µM | – | > 100 µM | – | > 100 µM | – | 48.5 µM | – | 48.9 µM | – | 81.6 µM | – | > 100 µM |
| CC(=O)OCC1OC(n2c3c(cc(C#N)c2=S)CCCC3)C(OC(C)=O)C(OC(C)=O)C1OC(C)=O (configuration not stated) | > 100 µM and 26.9 µM | > 100 µM | > 93.3 µM | > 100 µM | – | > 100 µM | 20.7 µM and > 100 µM | 57.3 µM and > 100 µM | – | > 100 µM | – | > 100 µM | – | > 100 µM | > 100 µM and 48.1 µM | > 100 µM | 32.4 µM and > 100 µM | > 100 µM | > 100 µM and 26.5 µM | > 100 µM |
| Cc1ccc(C2CC(c3ccc(Nc4ccnc5cc(Cl)ccc45)cc3)=NN2C=O)cc1 (configuration not stated) | 50.9 µM | > 100 µM | 25.2 µM | > 100 µM | 26.6 µM | > 100 µM | 4.11 µM | > 100 µM | 6.88 µM | > 100 µM | 6.09 µM | > 100 µM | > 100 µM | > 100 µM | > 100 µM | > 100 µM | 3.18 µM | 10.2 µM | 4.13 µM | > 100 µM |
| C=C1CC[C@H]2C(C)=CC[C@H]3C(=C)C(=O)O[C@@H]3[C@@H]12 | – | > 100 µM | – | > 100 µM | – | > 100 µM | – | > 100 µM | – | > 100 µM | – | > 100 µM | – | > 100 µM | – | > 100 µM | – | > 100 µM | – | > 100 µM |
| COc1cc2c3cc1Oc1c(OC)c(OC)cc4c1C(Cc1ccc(O)c(c1)Oc1ccc(cc1)CC3N(C)CC2)N(C)CC4 (configuration not stated) | – | > 100 µM and 33.3 µM | 5.56 µM | > 100 µM and 49.5 µM | 27.7 µM | > 100 µM | 3.68 µM | > 100 µM and 15.9 µM | – | > 100 µM | 5.21 µM | > 100 µM and 21.9 µM | – | 32.4 µM and 38.8 µM | 2.16 µM | – | 3.32 µM | 21 µM | – | > 100 µM and 29.2 µM |
